From paper PMC9090415, “Discovery of small molecule inhibitors of Plasmodium falciparum apicoplast DNA polymerase” (Journal of Enzyme Inhibition and Medicinal Chemistry, 2022)
Read-outs that look alike come from different tables or passages of the source.

Molecular target: P. falciparum apicoplast DNA polymerase (Pf-apPOL) (Plasmodium falciparum, UniProt Q8ILY1)
Experiment: Fluorescence-based high-throughput DNA polymerase assay (molecular beacon), primary screen and dose-response
Format: biochemical
Settings: for DNA Pol: 90 min, 10 µM; for % inhibition apPOL 180' 2.5 / % inhibition apPOL 180' 5 / % inhibition apPOL 180' 10 / % inhibition apPOL 180' 20 / % inhibition apPOL 180' 40 / % inhibition apPOL 180' 80: read at 180'
Procedure, shortened: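 Single-point screening used 10 µM compound with 20 nM polymerase, 20 nM hairpin substrate and 6 µM dNTPs for 90 min at 25 °C. Confirmatory titrations (2.5–80 µM) followed fluorescence at three times, and IC50 was derived from a fit including a cooperativity term n.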

[1] = first dose-response, concentration 10
[2] = first dose-response, concentration 20

Sequence of P. falciparum apicoplast DNA polymerase (Pf-apPOL) (Q8ILY1 entry or part of it): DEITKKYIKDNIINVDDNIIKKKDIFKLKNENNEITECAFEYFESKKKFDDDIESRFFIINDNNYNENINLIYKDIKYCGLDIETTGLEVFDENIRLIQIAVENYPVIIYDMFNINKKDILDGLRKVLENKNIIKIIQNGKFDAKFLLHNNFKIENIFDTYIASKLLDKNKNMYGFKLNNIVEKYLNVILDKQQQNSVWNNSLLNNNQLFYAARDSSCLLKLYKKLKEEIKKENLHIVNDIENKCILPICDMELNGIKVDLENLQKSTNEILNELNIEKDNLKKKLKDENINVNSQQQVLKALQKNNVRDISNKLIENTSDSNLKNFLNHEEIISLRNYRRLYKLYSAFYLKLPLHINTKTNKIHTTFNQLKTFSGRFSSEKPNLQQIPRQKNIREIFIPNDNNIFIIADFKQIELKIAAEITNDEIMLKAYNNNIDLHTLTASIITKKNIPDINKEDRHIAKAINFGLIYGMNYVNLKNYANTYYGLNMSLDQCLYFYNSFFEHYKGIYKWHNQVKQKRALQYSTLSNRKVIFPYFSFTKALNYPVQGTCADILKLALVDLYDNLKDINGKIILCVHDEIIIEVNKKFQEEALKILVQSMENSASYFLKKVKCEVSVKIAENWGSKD

In the case of O=C(O)CCS(=O)(=O)c1ccc(-c2ccc(S(=O)(=O)CCC(=O)O)cc2)cc1 [Molecule 32, OC(=O)CCS(=O)(=O)c1ccc(cc1)c1ccc(cc1)S(=O)(=O)CCC(=O)O], the “DNA Pol” value ("DNA Pol" of the 186 hits list (screen value)) is reported as 40, the “% inhibition Apo pol 10'” value (DRC-1, concentration 2.5) is reported as 22.5031% and the “% inhibition Apo pol 10'” value (DRC-1, concentration 5) is reported as 45.6696%. For the same compound, the “% inhibition Apo pol 10'” value (DRC-1, concentration 10) was 64.9587%, the “% inhibition Apo pol 10'” value (DRC-1, concentration 20) was 75.2971% and the “% inhibition Apo pol 10'” value (DRC-1, concentration 40) was 82.8671%. For the same compound, the “% inhibition Apo pol 10'” value (DRC-1, concentration 80) was 87.3536%, the “% inhibition Apol 90'” value (DRC-1, concentration 2.5) was 7.663% and the “% inhibition Apol 90'” value (DRC-1, concentration 5) was 20.8234%. For the same compound, the “% inhibition Apol 90'” value (DRC-1, concentration 10) was 43.1445%, the “% inhibition Apol 90'” value (DRC-1, concentration 20) was 59.5248% and the “% inhibition Apol 90'” value (DRC-1, concentration 40) was 71.1176%. The “% inhibition Apol 90'” value (DRC-1, concentration 80) was 79.0648%, the “% inhibition apPOL 180'” value (DRC-1, concentration 2.5) was -2.177% and the “% inhibition apPOL 180'” value (DRC-1, concentration 5) was 7.502%. For the same compound, the “% inhibition apPOL 180'” value (DRC-1, concentration 10) was 30.5046%, the “% inhibition apPOL 180'” value (DRC-1, concentration 20) was 50.8957% and the “% inhibition apPOL 180'” value (DRC-1, concentration 40) was 64.8259%. The “% inhibition apPOL 180'” value (DRC-1, concentration 80) was 73.8924%, the “% inhibition Apo pol 5'” value (DRC-2, concentration 2.5) was 15% and the “% inhibition Apo pol 5'” value (DRC-2, concentration 5) was 24%. For the same compound, the “% inhibition Apo pol 5'” value (DRC-2, concentration 10) was 39%, the “% inhibition Apo pol 5'” value (DRC-2, concentration 20) was 43% and the “% inhibition Apo pol 5'” value (DRC-2, concentration 40) was 49%. For the same compound, the “% inhibition Apo pol 5'” value (DRC-2, concentration 80) was 51%, the “% inhibition Apol 40'” value (DRC-2, concentration 2.5) was 10% and the “% inhibition Apol 40'” value (DRC-2, concentration 5) was 15%. The “% inhibition Apol 40'” value (DRC-2, concentration 10) was 31%, the “% inhibition Apol 40'” value (DRC-2, concentration 20) was 40% and the “% inhibition Apol 40'” value (DRC-2, concentration 40) was 53%. For the same compound, the “% inhibition Apol 40'” value (DRC-2, concentration 80) was 63%, the “% inhibition ApPOL 90'” value (DRC-2, concentration 2.5) was 5.57% and the “% inhibition ApPOL 90'” value (DRC-2, concentration 5) was 8%. For the same compound, the “% inhibition ApPOL 90'” value (DRC-2, concentration 10) was 26%, the “% inhibition ApPOL 90'” value (DRC-2, concentration 20) was 37% and the “% inhibition ApPOL 90'” value (DRC-2, concentration 40) was 52%. The “% inhibition ApPOL 90'” value (DRC-2, concentration 80) was 65%, the “% inhibition apPOL 180'” value (DRC-2, concentration 2.5) was -4.51% and the “% inhibition apPOL 180'” value (DRC-2, concentration 5) was -2.16%. For the same compound, the “% inhibition apPOL 180'” value (DRC-2, concentration 10) was 17%, the “% inhibition apPOL 180'” value (DRC-2, concentration 20) was 32% and the “% inhibition apPOL 180'” value (DRC-2, concentration 40) was 49%. For the same compound, the “% inhibition apPOL 180'” value (DRC-2, concentration 80) was 64% and the “DNA Pol” value (primary screen value, DNA Pol) was 40.
COc1ccccc1CC(=O)N1CCc2c(nc3cc(-c4ccccc4Cl)[nH]n3c2=O)C1 [Molecule 49, COc1ccccc1CC(=O)N1CCc2c(C1)nc1n(c2=O)[nH]c(c1)c1ccccc1Cl] was tested, and the “DNA Pol” value (186 hits, DNA Pol (screen value), unit not given) was 46, the “DNA Pol” value ('DNA Pol' (screen value), unit not given) was 46 and the “% inhibition Apo pol 10' 2.5” value (DRC-1, read at 10', concentration 2.5) was 7.56%. For the same compound, the “% inhibition Apo pol 10' 5” value (DRC-1, read at 10', concentration 5) was 17%, the “% inhibition Apo pol 10' 10” value (DRC-1, read at 10', concentration 10) was 40% and the “% inhibition Apo pol 10' 20” value (DRC-1, read at 10', concentration 20) was 65%. For the same compound, the “% inhibition Apo pol 10' 40” value (DRC-1, read at 10', concentration 40) was 80%, the “% inhibition Apo pol 10' 80” value (DRC-1, read at 10', concentration 80) was 74% and the “% inhibition Apol 90' 2.5” value (DRC-1, read at 90', concentration 2.5) was -3.41%. The “% inhibition Apol 90' 5” value (DRC-1, read at 90', concentration 5) was 2.19%, the “% inhibition Apol 90' 10” value (DRC-1, read at 90', concentration 10) was 20% and the “% inhibition Apol 90' 20” value (DRC-1, read at 90', concentration 20) was 40%. For the same compound, the “% inhibition Apol 90' 40” value (DRC-1, read at 90', concentration 40) was 68%, the “% inhibition Apol 90' 80” value (DRC-1, read at 90', concentration 80) was 71% and the “% inhibition apPOL 180' 2.5” value (DRC-1, concentration 2.5) was -9%. The “% inhibition apPOL 180' 5” value (DRC-1, concentration 5) was -5.67%, the “% inhibition apPOL 180' 10” value (DRC-1, concentration 10) was 8% and the “% inhibition apPOL 180' 20” value (DRC-1, concentration 20) was 20%. For the same compound, the “% inhibition apPOL 180' 40” value (DRC-1, concentration 40) was 52%, the “% inhibition apPOL 180' 80” value (DRC-1, concentration 80) was 59% and the “% inhibition Apo pol 5'” value (DRC-2, concentration 40) was 56%. The “% inhibition Apol 40'” value (DRC-2, concentration 5) was 20%, the “% inhibition Apol 40'” value (DRC-2, concentration 10) was 44% and the “% inhibition Apol 40'” value (DRC-2, concentration 20) was 56%. For the same compound, the “% inhibition apPOL 180'” value (DRC-2, concentration 20) was 44%, the “% inhibition apPOL 180'” value (DRC-2, concentration 40) was 56% and the “% inhibition apPOL 180'” value (DRC-2, concentration 80) was 52%. The “% inhibition Apo pol 5' 2.5” value (DRC-2, read at 5', concentration 2.5) was 3.77%, the “% inhibition Apo pol 5' 5” value (DRC-2, read at 5', concentration 5) was 16% and the “% inhibition Apo pol 5' 10” value (DRC-2, read at 5', concentration 10) was 38%. For the same compound, the “% inhibition Apo pol 5' 20” value (DRC-2, read at 5', concentration 20) was 49%, the “% inhibition Apo pol 5' 40” value (DRC-2, read at 5', concentration 40) was 56% and the “% inhibition Apo pol 5' 80” value (DRC-2, read at 5', concentration 80) was 41%. For the same compound, the “% inhibition Apol 40' 2.5” value (DRC-2, read at 40', concentration 2.5) was 3.38%, the “% inhibition Apol 40' 5” value (DRC-2, read at 40', concentration 5) was 20% and the “% inhibition Apol 40' 10” value (DRC-2, read at 40', concentration 10) was 44%. The “% inhibition Apol 40' 20” value (DRC-2, read at 40', concentration 20) was 56%, the “% inhibition Apol 40' 40” value (DRC-2, read at 40', concentration 40) was 64% and the “% inhibition Apol 40' 80” value (DRC-2, read at 40', concentration 80) was 57%. The “% inhibition ApPOL 90' 2.5” value (DRC-2, read at 90', concentration 2.5) was 3.2%, the “% inhibition ApPOL 90' 5” value (DRC-2, read at 90', concentration 5) was 18% and the “% inhibition ApPOL 90' 10” value (DRC-2, read at 90', concentration 10) was 43%. The “% inhibition ApPOL 90' 20” value (DRC-2, read at 90', concentration 20) was 54%, the “% inhibition ApPOL 90' 40” value (DRC-2, read at 90', concentration 40) was 63% and the “% inhibition ApPOL 90' 80” value (DRC-2, read at 90', concentration 80) was 58%. The “% inhibition apPOL 180' 2.5” value (DRC-2, concentration 2.5) was -1%, the “% inhibition apPOL 180' 5” value (DRC-2, concentration 5) was 12% and the “% inhibition apPOL 180' 10” value (DRC-2, concentration 10) was 34%. For the same compound, the “% inhibition apPOL 180' 20” value (DRC-2, concentration 20) was 44%, the “% inhibition apPOL 180' 40” value (DRC-2, concentration 40) was 56% and the “% inhibition apPOL 180' 80” value (DRC-2, concentration 80) was 52%. For the same compound, the “% inhibition Apo pol 10'” value [1] was 40%, the “% inhibition Apol 90'” value [1] was 20% and the “% inhibition Apol 90'” value [2] was 40%. For the same compound, the “% inhibition apPOL 180'” value [2] was 20% and the “% inhibition apPOL 180'” value (first dose-response, concentration 40) was 52%.
With OC(C#Cc1ccccc1)c1ccco1 (stereo not drawn) [Molecule 95] the IC50 (read-out: IC50 Pf-apPOL, Table 2) was 7.4 ± 0.4 µM and the IC50 (supplemental file 2, sheet IC50 nontoxic compounds, Pf-apPOL) was 7.4 µM.
